Test results reported in patent US20260193264A1, “BENZOYPARAZINE PYRAZINES AND THEIR USES” (FOGHORN THERAPEUTICS INC., priority 2022, published 2026).

What was measured:
[1] = molecular target: T1, HiBiT-BRM fusion protein in stable HeLa cell line (Homo sapiens, UniProt P51531); experiment: HiBiT-BRM cell-based degradation assay (Nano-Glo HiBiT Lytic Detection, 24 h); design: DC50: scale not given here; conditions: HeLa HiBiT-BRM cells; for DC50: read-out: BRM HiBit Degradation IC50; for BRM HiBit Degradation Maximum (%): top dose 30 μM
T1 construct: expressed in transfected cells
T1 sequence (P51531 whole entry, the tested form may be a part): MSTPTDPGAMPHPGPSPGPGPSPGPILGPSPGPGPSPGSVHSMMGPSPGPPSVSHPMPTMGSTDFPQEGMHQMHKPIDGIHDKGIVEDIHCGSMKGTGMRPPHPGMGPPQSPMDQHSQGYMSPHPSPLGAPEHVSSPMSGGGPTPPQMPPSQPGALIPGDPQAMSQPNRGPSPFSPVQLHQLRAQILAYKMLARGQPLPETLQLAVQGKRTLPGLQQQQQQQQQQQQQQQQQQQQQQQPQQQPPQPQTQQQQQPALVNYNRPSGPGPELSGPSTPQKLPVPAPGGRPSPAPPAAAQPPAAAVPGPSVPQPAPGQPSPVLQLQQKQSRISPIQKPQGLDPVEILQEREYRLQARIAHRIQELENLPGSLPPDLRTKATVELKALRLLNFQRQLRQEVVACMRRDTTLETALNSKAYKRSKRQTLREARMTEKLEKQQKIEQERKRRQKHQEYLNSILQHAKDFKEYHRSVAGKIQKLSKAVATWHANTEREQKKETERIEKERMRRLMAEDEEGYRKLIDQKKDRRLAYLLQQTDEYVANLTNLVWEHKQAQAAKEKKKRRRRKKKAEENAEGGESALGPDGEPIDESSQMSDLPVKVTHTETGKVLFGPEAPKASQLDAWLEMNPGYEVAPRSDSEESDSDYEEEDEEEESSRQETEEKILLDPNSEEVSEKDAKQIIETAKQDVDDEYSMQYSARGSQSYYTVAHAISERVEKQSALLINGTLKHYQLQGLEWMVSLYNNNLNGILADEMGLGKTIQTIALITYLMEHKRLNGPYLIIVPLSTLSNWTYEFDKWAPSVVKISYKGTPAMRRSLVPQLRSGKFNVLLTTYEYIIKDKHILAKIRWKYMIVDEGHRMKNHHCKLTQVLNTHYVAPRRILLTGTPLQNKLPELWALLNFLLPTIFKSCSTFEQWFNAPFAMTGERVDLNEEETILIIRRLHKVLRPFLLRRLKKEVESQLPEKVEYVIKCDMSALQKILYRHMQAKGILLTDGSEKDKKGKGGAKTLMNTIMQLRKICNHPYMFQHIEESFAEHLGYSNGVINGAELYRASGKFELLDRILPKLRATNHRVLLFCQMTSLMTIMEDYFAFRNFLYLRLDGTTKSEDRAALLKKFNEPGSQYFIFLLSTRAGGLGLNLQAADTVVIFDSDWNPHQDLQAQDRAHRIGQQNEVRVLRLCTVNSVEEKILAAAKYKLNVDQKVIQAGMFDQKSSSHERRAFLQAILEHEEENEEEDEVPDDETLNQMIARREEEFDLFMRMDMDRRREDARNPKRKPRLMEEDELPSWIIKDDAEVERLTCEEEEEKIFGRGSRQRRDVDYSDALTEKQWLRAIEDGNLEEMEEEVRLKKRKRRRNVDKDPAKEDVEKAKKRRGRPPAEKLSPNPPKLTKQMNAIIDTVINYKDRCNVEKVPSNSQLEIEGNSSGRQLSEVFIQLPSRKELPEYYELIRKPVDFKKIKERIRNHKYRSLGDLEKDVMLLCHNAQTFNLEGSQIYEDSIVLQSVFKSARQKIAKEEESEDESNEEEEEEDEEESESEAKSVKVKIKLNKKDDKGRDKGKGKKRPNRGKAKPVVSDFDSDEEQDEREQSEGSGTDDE
Method in brief: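 Luminescence from HiBiT/LgBiT complementation after lysis reports remaining HiBiT-BRM in stable HeLa cells exposed to compound for 24 h. Dosing used 3-fold serial dilutions, 10 points, 30 μM top final concentration. DMSO and a 2 μM BRM/BRG1 degrader standard defined 0% and 100% degradation.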

[2] = molecular target: T2, HiBit-BRG1 fusion protein in stable HeLa cell line expressing HiBit-BRG1 and LgBit (Homo sapiens, UniProt P51532); experiment: HiBiT-BRG1 cell-based degradation assay (Nano-Glo HiBiT, 24 h); conditions: HeLa HiBit-BRG1/LgBit cells; for DC50: read-out: BRMG1 HiBit Degradation IC50; for Dmax: top dose 30 μM, read-out: BRG1 HiBit Degradation Maximum (%)
T2 construct: expressed in transfected cells
T2 sequence (P51532 whole entry, the tested form may be a part): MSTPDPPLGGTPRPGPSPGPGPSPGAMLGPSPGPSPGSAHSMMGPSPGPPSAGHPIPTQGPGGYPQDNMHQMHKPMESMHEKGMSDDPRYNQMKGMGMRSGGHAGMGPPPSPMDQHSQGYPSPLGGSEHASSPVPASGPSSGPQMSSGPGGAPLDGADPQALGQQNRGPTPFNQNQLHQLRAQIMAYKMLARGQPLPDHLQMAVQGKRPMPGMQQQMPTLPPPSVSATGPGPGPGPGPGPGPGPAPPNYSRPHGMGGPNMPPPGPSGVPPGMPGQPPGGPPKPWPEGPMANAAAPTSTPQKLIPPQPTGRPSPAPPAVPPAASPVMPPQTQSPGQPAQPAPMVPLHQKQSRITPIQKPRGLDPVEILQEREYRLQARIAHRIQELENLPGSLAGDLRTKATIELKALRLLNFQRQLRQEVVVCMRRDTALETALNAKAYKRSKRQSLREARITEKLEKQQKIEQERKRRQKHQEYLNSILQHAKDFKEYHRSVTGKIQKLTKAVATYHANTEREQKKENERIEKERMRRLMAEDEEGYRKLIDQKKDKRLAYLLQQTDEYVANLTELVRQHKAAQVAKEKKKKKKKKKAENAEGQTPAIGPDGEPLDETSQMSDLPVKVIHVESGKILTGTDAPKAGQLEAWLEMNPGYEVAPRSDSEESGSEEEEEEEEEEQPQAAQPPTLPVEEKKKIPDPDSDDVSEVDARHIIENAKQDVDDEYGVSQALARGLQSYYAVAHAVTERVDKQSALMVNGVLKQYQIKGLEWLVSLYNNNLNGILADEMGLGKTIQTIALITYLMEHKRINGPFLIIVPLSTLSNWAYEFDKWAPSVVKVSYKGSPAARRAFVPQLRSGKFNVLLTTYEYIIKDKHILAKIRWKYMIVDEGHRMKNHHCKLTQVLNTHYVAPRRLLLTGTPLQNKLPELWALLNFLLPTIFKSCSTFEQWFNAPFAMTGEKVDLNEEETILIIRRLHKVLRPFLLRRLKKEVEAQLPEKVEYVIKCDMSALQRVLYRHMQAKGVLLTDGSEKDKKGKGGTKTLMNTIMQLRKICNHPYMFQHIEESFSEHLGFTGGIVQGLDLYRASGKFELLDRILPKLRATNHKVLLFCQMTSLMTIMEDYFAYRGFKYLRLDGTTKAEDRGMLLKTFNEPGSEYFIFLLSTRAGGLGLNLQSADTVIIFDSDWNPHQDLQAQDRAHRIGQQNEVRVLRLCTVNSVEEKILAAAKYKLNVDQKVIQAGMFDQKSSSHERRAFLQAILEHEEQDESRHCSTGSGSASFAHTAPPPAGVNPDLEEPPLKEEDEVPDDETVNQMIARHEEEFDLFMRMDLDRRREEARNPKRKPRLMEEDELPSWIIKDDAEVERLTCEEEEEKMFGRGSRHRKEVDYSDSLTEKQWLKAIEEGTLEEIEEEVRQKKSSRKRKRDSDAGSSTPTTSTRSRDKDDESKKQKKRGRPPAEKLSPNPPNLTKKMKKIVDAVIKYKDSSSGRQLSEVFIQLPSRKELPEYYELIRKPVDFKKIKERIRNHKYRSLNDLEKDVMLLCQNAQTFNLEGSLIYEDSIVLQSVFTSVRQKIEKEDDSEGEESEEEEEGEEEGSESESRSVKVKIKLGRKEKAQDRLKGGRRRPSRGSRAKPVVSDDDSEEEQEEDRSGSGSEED
Method in brief: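 Stable HeLa line co-expressing HiBiT-BRG1 and LgBiT, compound-treated 24 h; luminescence read after Nano-Glo HiBiT lytic reagent. % degradation normalised between DMSO (high control) and 2 μM reference BRM/BRG1 degrader (low control).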

Cc1ncsc1-c1ccc([C@H](C)NC(=O)[C@@H]2C[C@@H](O)CN2C(=O)[C@@H](c2cc(N3CCN([C@H]4CCN(Cc5ccc6nnc(-c7ccccc7O)cc6c5)CC4(F)F)CC3)no2)C(C)C)cc1 [Compound 137, (2S,4R)-1-((R)-2-(3-(4-((S)-3,3-difluoro-1-((3-(2-hydroxyphenyl)cinnolin-6-yl)methyl)piperidin-4-yl)piperazin-1-yl)isoxazol-5-yl)-3-methylbutanoyl)-4-hydroxy-N-((S)-1-(4-(4-methylthiazol-5-yl)phenyl)ethyl)pyrrolidine-2-carboxamide]
DC50 [1]: < 10 nM | BRM HiBit Degradation Maximum (%) [1]: A (“A” indicates maximum degradation ≥75%) | DC50 [2]: < 10 nM | Dmax [2]: > 75%

COC[C@H]1CN(c2cc([C@H](C(=O)N3C[C@H](O)C[C@H]3C(=O)N[C@@H](C)c3ccc(-c4scnc4C)cc3)C(C)C)on2)CCN1c1ccc2nnc(-c3ccccc3O)cc2c1 [Compound 138, (2S,4R)-4-hydroxy-1-((R)-2-(3-((R)-4-(3-(2-hydroxyphenyl)cinnolin-6-yl)-3-(methoxymethyl)piperazin-1-yl)isoxazol-5-yl)-3-methylbutanoyl)-N-((S)-1-(4-(4-methylthiazol-5-yl)phenyl)ethyl)pyrrolidine-2-carboxamide]
DC50 [1]: < 10 nM | BRM HiBit Degradation Maximum (%) [1]: A (“A” indicates maximum degradation ≥75%) | DC50 [2]: > 10 nM | Dmax [2]: > 75%

COC[C@H]1CN(c2cc([C@H](C(=O)N3C[C@H](O)C[C@H]3C(=O)N[C@@H](C)c3ccc(-c4scnc4C)cc3)C(C)C)on2)CCN1c1ccc2cc(-c3ccccc3O)nnc2c1 [Compound 142, (2S,4R)-4-hydroxy-1-((R)-2-(3-((R)-4-(3-(2-hydroxyphenyl)cinnolin-7-yl)-3-(methoxymethyl)piperazin-1-yl)isoxazol-5-yl)-3-methylbutanoyl)-N-((S)-1-(4-(4-methylthiazol-5-yl)phenyl)ethyl)pyrrolidine-2-carboxamide]
DC50 [1]: > 10 nM | BRM HiBit Degradation Maximum (%) [1]: A (“A” indicates maximum degradation ≥75%) | Dmax [2]: < 50%

Cc1ncsc1-c1ccc([C@H](C)NC(=O)[C@@H]2C[C@@H](O)CN2C(=O)[C@@H](c2cc(-c3ccc4nnc(-c5cccc(F)c5O)cc4c3)no2)C(C)C)cc1 [Compound 143, (2S,4R)-1-((R)-2-(3-(3-(3-fluoro-2-hydroxyphenyl)cinnolin-6-yl)isoxazol-5-yl)-3-methylbutanoyl)-4-hydroxy-N-((S)-1-(4-(4-methylthiazol-5-yl)phenyl)ethyl)pyrrolidine-2-carboxamide]
DC50 [1]: < 10 nM | BRM HiBit Degradation Maximum (%) [1]: A (“A” indicates maximum degradation ≥75%) | Dmax [2]: < 50%

COC[C@@H]1CN(c2cc(C(C(=O)N3C[C@H](O)C[C@H]3C(=O)N[C@@H](C)c3ccc(-c4scnc4C)cc3)C(C)C)on2)CCN1c1ccc2nnc(-c3ccccc3O)cc2c1 (stereo partly drawn) [Compound 144, (2S,4R)-4-hydroxy-1-(2-(3-((S)-4-(3-(2-hydroxyphenyl)cinnolin-6-yl)-3-(methoxymethyl)piperazin-1-yl)isoxazol-5-yl)-3-methylbutanoyl)-N-((S)-1-(4-(4-methylthiazol-5-yl)phenyl)ethyl)pyrrolidine-2-carboxamide]
DC50 [1]: < 10 nM | BRM HiBit Degradation Maximum (%) [1]: A (“A” indicates maximum degradation ≥75%) | DC50 [2]: > 10 nM | Dmax [2]: > 75%

Cc1ncsc1-c1ccc([C@H](C)NC(=O)[C@@H]2C[C@@H](O)CN2C(=O)[C@@H](c2cc(N3CC4(CN(c5cc(C)c6cc(-c7ccccc7O)nnc6c5)C4)C3)no2)C(C)C)cc1 [Compound 145, (2S,4R)-4-hydroxy-1-((R)-2-(3-(6-(3-(2-hydroxyphenyl)-5-methylcinnolin-7-yl)-2,6-diazaspiro[3.3]heptan-2-yl)isoxazol-5-yl)-3-methylbutanoyl)-N-((S)-1-(4-(4-methylthiazol-5-yl)phenyl)ethyl)pyrrolidine-2-carboxamide]
DC50 [1]: < 10 nM | BRM HiBit Degradation Maximum (%) [1]: A (“A” indicates maximum degradation ≥75%) | Dmax [2]: < 50%
